Reference: patent US8389236B2, “Assay” (Otago Innovation Limited, priority 2005, dated 2013)
“And” between values parts separate entries of the source, which are not always exact repeats. Equal values may be shown once.

Legend:
[1] = tested on: HIV-1 gag/pol −1 frameshift signal sequence (HIV-1 frameshift construct); assay: Dual fluorescent reporter (EGFP/DsRed) recoding assay in transiently transfected COS-7 cells, with Null 0 control construct; format: cell-based; details: for Minus 1 Frameshift Construct EGFP signal, Average / Null 0 Frameshift Construct EGFP signal, Average: 485 excitation 520-P emission; for Minus 1 Frameshift Construct DsRed signal, Average / Null 0 Frameshift Construct DsRed signal, Average: 525 excitation 600LP emission; for Frameshift: DsRed 525 excitation/600LP emission
Protocol: Mammalian COS-7 cells were grown, harvested, trypsinised, washed and diluted to 1×10^5 cells/ml all under standard conditions.
The diluted cells were then split into two equal portions. One portion was transiently transfected with the recoding construct, and other with the Null 0 frame control construct. Transient transfection was performed using 2 μL of FuGENE® 6 transfection reagent (Roche) and 500 ng of DNA for every mL of cells, in accordance with the manufacturing instructions.
Transfected cells were seeded in 24 well plates under standard conditions. Cycloheximide was added in triplicate at 50 nM and the plates were then incubated for 48 hours at 37° C.
The cells were washed 3 times with Phosphate Buffered Saline (PBS) to remove any traces of culture medium. 100 ul of Passive Lysis buffer (Promega) was added. The cells were frozen. The frozen cells were then thawed and transferred to a 96 well plate, and fluorescence intensity was read in the BMG PolarStar plate reader.
Plate reader settings were as follows:
Filters 485 excitation, 520-P emission
Filters 544 excitation, 590 emission
[[DsRed signal: HIV-1 frameshift construct]/[EGFP signal: HIV-1 frameshift construct]]/[[DsRed signal: Null 0 frameshift construct]/[EGFP signal: Null 0 frameshift construct]]
The diluted cells were then split into two equal portions. One portion was transfected, as described in Example 3, with the recoding construct, and other with the Null 0 frame control construct.
Cells were then seeded in 24 well plates under standard conditions. Anisomycin was added in triplicate at 50 nM and the plates were then incubated for 48 hours at 37° C.
The cells were prepared as described in examples 3 and 4.
DsRed signal at 525 excitation, 600LP emission
EGFP signal at 485 excitation, 520-P emission
Frameshift figures, shown in Table 5, were calculated using the formula shown in Example 3 using data from Tables 1, 2, 3 and 4.
Transfected cells were prepared as described in Example 5, and treated with 0 nM (no drug) 100 nM, 200 nM, 300 nM, 400 nM and 500 nM concentrations of anisomycin.
Incubation, plate reader setting and readings were as described in Example 5.
For the anisomycin titrations, the frameshift figures, shown in Table 10, were calculated using the formula shown in Example 3 using data from Tables 6, 7, 8 and 9.

[2] = tested on: HIV-1 gag/pol −1 frameshift signal sequence (HIV-1 frameshift construct); assay: Stably transfected dual fluorescent reporter recoding assay in Flp-In CV1 cells (−1 frame construct); format: cell-based; details: for DsRed/EGFP ratio / Percentage decrease in ratio / Minus 1 Frameshift Construct EGFP signal, Average / Minus 1 Frameshift Construct DsRed signal, Average: 120 hours; for DsRed/EGFP ratio / Percentage decrease in ratio: stable Flp-In CV1 cells; for DsRed/EGFP ratio: not normalised to Null 0, expressed as a percentage; for Percentage decrease in ratio: vs no drug; for Minus 1 Frameshift Construct EGFP signal, Average: 485 excitation 515 emission; for Minus 1 Frameshift Construct DsRed signal, Average: 535 excitation 590 emission
Protocol: The translational recoding construct described above was excised via Hind III and Not I restrictions sites and ligated into a Flp-In™ pcDNA5/FRT expression vector (Invitrogen Life Technologies) before being stably transformed into Flp-In™ CV1 cells (Invitrogen Life Technologies) according to the manufacturer's instructions.
Flp-In CV1 cells (CV1 cells), as described in Example 2, transfected with the −1 frame construct, and untransfected CV1 cells were grown, harvested, trypsinised, washed and diluted to 1×10^5 cells/ml all under standard conditions.
Cells were then seeded in 96 well plates under standard conditions. The plates were then incubated for 120 hours at 37° C.
The cells were washed 3 times with Phosphate Buffered Saline (PBS) to remove any traces of culture medium. 100 ul of Passive Lysis buffer (Promega) was added. The cells were frozen. The frozen cells were then thawed and fluorescence intensity was read in the Tecan Genios Pro plate reader.
Plate reader setting were as follows:
Filters 485 excitation, 515 emission
Filters 535 excitation, 590 emission
As a Null 0 frameshift construct was not used in this experiment ratios of the DsRed to EGFP signal were calculated to take into account the decrease in the EGFP signal with increasing drug concentrations.
The calculation was similar to example 3, with the counts averaged, the control cell counts removed before working out the ratio of the DsRed signal to the EGFP signal. Normalisation using a Null 0 frame construct could not be performed, with the results below being expressed as a percentage. The calculation was a follows: [[DsRed signal: HIV-1 frameshift construct]/[EGFP signal: HIV-1 frameshift construct]]

[3] = 50 nM, 48 hours, 485 excitation, 520-P emission
[4] = 50 nM, 48 hours, 544 excitation, 590 emission
[5] = 100 nM, COS-7, 525/600LP filters, vs no drugs

C[C@@H]1C[C@@H]([C@H](O)CC2CC(=O)NC(=O)C2)C(=O)[C@@H](C)C1 [Cycloheximide]
decrease in frameshift from the original (no drug) value ([1]; 50 nM, 48 hours, COS-7, 544/590 filters): 5%
absolute change frameshift efficiency ([1]; 50 nM, 48 hours, COS-7, vs no drug control, 544/590 filters): 0.29%
EGFP signal, HIV-1 frameshift construct, average [1, 3]: 24268 RFU
EGFP signal, HIV-1 frameshift construct, average minus control [1, 3]: 23858 RFU
EGFP signal, Null 0 frameshift construct, average [1, 3]: 42054 RFU
EGFP signal, Null 0 frameshift construct, average minus control [1, 3]: 41644 RFU
DsRed signal, HIV-1 frameshift construct, average [1, 4]: 1447 RFU
DsRed signal, HIV-1 frameshift construct, average minus control [1, 4]: 1342 RFU
DsRed signal, Null 0 frameshift construct, average [1, 4]: 43596 RFU
DsRed signal, Null 0 frameshift construct, average minus control [1, 4]: 43491 RFU
Minus 1 Frameshift Construct EGFP signal, Average ([1]; 100 nM): 23068
Null 0 Frameshift Construct EGFP signal, Average ([1]; 100 nM): 41181
Minus 1 Frameshift Construct DsRed signal, Average ([1]; 100 nM): 2384
Null 0 Frameshift Construct DsRed signal, Average ([1]; 100 nM): 39126
Percentage decrease in frameshift [1, 5]: 2.7% and 2.71%
absolute change in frameshift efficiency [1, 5]: 0.23%
Frameshift ([1]; 100 nM, COS-7): 8.25%
Minus 1 Frameshift Construct EGFP signal, Average ([1]; 200 nM): 25793
Null 0 Frameshift Construct EGFP signal, Average ([1]; 200 nM): 42120
Minus 1 Frameshift Construct DsRed signal, Average ([1]; 200 nM): 2567
Null 0 Frameshift Construct DsRed signal, Average ([1]; 200 nM): 40152
Percentage decrease in frameshift ([1]; 200 nM, COS-7, 525/600LP filters, vs no drugs): 4.51%
Frameshift ([1]; 200 nM, COS-7): 8.10%
Minus 1 Frameshift Construct EGFP signal, Average ([1]; 300 nM): 27197
Null 0 Frameshift Construct EGFP signal, Average ([1]; 300 nM): 46595
Minus 1 Frameshift Construct DsRed signal, Average ([1]; 300 nM): 2674
Null 0 Frameshift Construct DsRed signal, Average ([1]; 300 nM): 45168
Percentage decrease in frameshift ([1]; 300 nM, COS-7, 525/600LP filters, vs no drugs): 6.17%
Frameshift ([1]; 300 nM, COS-7): 7.96%
Minus 1 Frameshift Construct EGFP signal, Average ([1]; 400 nM): 27613
Null 0 Frameshift Construct EGFP signal, Average ([1]; 400 nM): 42950
Minus 1 Frameshift Construct DsRed signal, Average ([1]; 400 nM): 2704
Null 0 Frameshift Construct DsRed signal, Average ([1]; 400 nM): 41311
Percentage decrease in frameshift ([1]; 400 nM, COS-7, 525/600LP filters, vs no drugs): 5.52%
Frameshift ([1]; 400 nM, COS-7): 8.01%
Minus 1 Frameshift Construct EGFP signal, Average ([1]; 500 nM): 28615
Null 0 Frameshift Construct EGFP signal, Average ([1]; 500 nM): 42742
Minus 1 Frameshift Construct DsRed signal, Average ([1]; 500 nM): 2790
Null 0 Frameshift Construct DsRed signal, Average ([1]; 500 nM): 41338
Percentage decrease in frameshift ([1]; 500 nM, COS-7, 525/600LP filters, vs no drugs): 5.66%
Frameshift ([1]; 500 nM, COS-7): 8.00%
effect on −1 frameshifting ([1]; result in words): antagonists to −1 frameshifting
DsRed/EGFP ratio ([2]; 50 nM): 7.38%
Percentage decrease in ratio ([2]; 50 nM): 4.11%
Minus 1 Frameshift Construct EGFP signal, Average ([2]; 50 nM): 11313
Minus 1 Frameshift Construct DsRed signal, Average ([2]; 50 nM): 1220
DsRed/EGFP ratio ([2]; 100 nM): 7.28%
Percentage decrease in ratio ([2]; 100 nM): 5.39%
Minus 1 Frameshift Construct EGFP signal, Average ([2]; 100 nM): 11262
Minus 1 Frameshift Construct DsRed signal, Average ([2]; 100 nM): 1210
DsRed/EGFP ratio ([2]; 500 nM): 5.47%
Percentage decrease in ratio ([2]; 500 nM): 28.91%
Minus 1 Frameshift Construct EGFP signal, Average ([2]; 500 nM): 8638
Minus 1 Frameshift Construct DsRed signal, Average ([2]; 500 nM): 948
DsRed/EGFP ratio ([2]; 1000 nM): 3.25%
Percentage decrease in ratio ([2]; 1000 nM): 57.82%
Minus 1 Frameshift Construct EGFP signal, Average ([2]; 1000 nM): 7308
Minus 1 Frameshift Construct DsRed signal, Average ([2]; 1000 nM): 818
DsRed/EGFP ratio ([2]; 2000 nM): −2.94%
Percentage decrease in ratio ([2]; 2000 nM): 138.27%
Minus 1 Frameshift Construct EGFP signal, Average ([2]; 2000 nM): 6285
Minus 1 Frameshift Construct DsRed signal, Average ([2]; 2000 nM): 688
% decrease in ratio over concentration range ([2]; range between 50 nM and 2000 nM, stable cells, result in words): dose responsive effect
